According to BindingDB's records for patent US11220494 (Pfizer Inc., 2022):

Target: Cyclin-dependent kinase 6/G1/S-specific cyclin-D3 (Homo sapiens, UniProt Q00534+P30281)
Test: Mobility Shift Assay
Experimental: The purpose of the CDK6/Cyclin D3 assay is to evaluate the inhibition (% inhibition, Kiapp and Ki values) in the presence of small molecule inhibitors by using a fluorescence based microfluidic mobility shift assay. […] The mobility shift assay electrophoretically separates the fluorescently labeled peptides (substrate and phosphorylated product) following the kinase reaction. Both substrate and product are measured and the ratio of these values is used to generate % conversion of substrate to product by the LabChip EZ Reader. […] The reaction was stopped after 95 minutes by the addition of 50 μL of 30 mM EDTA. Ki determinations were made from a plot of the fractional velocity as a function of inhibitor concentration fit to the Morrison equation with the enzyme concentration as a variable.

Chain of Cyclin-dependent kinase 6/G1/S-specific cyclin-D3 (Q00534 whole entry): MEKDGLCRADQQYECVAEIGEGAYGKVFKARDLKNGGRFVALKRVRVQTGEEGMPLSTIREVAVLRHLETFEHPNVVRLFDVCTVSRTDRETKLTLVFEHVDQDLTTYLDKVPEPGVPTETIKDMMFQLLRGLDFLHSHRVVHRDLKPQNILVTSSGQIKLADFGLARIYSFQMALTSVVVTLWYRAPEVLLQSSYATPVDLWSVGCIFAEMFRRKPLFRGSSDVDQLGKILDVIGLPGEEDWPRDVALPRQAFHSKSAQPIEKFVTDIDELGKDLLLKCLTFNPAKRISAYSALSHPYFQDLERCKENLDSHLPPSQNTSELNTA
Chain of Cyclin-dependent kinase 6/G1/S-specific cyclin-D3 (P30281 whole entry): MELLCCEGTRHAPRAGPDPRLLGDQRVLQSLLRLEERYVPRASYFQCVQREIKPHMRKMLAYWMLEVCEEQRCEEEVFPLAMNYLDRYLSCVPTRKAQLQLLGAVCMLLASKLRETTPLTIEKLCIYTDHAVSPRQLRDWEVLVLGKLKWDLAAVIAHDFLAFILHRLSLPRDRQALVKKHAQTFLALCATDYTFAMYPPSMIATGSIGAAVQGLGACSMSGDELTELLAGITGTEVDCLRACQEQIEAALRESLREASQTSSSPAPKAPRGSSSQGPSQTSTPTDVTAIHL

Ki: 1.4 nM
Structure (SMILES): CC(C)n1c([C@H](C)O)nc2c(F)cc(-c3cc(N[C@@H]4CCN(S(C)(=O)=O)C[C@H]4O)ncc3Cl)cc21 [US11220494, Example E01]
